Reference: ChEMBL document CHEMBL1201862, “PubChem BioAssay data set” (2004)
Active and inactive are the calls of the source. Residues, ends and D or L forms follow the SMILES beside them. *: point of attachment. Boc = CC(C)(C)OC(=O)*; Bn = c1ccc(C*)cc1

How the values were obtained:
[1] = target: T1, Rac GTPase-activating protein 1 (Homo sapiens, UniProt Q9H0H5); test: blockers of MgcRacGAP-driven Rac1 GTP hydrolysis – biochemical, ADP Hunter fluorescence, primary and confirmatory, confirmation (AID 624330); assay type: functional
T1 sequence (Q9H0H5 whole entry): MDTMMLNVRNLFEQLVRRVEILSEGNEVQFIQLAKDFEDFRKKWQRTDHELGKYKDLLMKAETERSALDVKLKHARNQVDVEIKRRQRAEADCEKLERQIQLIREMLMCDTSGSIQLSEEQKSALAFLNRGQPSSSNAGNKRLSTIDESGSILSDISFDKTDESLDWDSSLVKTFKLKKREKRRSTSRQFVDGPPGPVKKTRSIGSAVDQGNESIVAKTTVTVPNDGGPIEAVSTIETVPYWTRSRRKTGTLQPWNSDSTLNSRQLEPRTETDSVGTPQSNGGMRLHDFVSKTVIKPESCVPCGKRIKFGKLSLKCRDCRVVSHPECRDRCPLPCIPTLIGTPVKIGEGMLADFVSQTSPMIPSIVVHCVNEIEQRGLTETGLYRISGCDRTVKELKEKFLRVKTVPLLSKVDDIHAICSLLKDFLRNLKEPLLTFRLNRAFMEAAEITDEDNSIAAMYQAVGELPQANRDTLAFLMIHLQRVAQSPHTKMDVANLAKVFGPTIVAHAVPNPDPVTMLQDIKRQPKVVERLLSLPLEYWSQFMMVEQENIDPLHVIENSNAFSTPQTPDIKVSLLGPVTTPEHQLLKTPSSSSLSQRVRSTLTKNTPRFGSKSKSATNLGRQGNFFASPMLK

Cytochrome P450 2C19 = Cytochrome P450 2C19 (Homo sapiens, UniProt P33261); test: Cytochrome panel assay with activity outcomes. Panel member name: p450-cyp2c19 Compounds with AC50 equal or less than 10 uM are considered active; assay type: functional; conditions: read-out: AC50
Cytochrome P450 3A4 = Cytochrome P450 3A4 (Homo sapiens, UniProt P08684);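 further: CYP3A4 tested as one member of a cytochrome P450 panel screen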
Cytochrome P450 2C9 = Cytochrome P450 2C9 (Homo sapiens, UniProt P11712)
Protein skinhead-1 = target: T2, Protein skinhead-1 (Caenorhabditis elegans, UniProt P34707); assay type: functional
T2 sequence (P34707 whole entry): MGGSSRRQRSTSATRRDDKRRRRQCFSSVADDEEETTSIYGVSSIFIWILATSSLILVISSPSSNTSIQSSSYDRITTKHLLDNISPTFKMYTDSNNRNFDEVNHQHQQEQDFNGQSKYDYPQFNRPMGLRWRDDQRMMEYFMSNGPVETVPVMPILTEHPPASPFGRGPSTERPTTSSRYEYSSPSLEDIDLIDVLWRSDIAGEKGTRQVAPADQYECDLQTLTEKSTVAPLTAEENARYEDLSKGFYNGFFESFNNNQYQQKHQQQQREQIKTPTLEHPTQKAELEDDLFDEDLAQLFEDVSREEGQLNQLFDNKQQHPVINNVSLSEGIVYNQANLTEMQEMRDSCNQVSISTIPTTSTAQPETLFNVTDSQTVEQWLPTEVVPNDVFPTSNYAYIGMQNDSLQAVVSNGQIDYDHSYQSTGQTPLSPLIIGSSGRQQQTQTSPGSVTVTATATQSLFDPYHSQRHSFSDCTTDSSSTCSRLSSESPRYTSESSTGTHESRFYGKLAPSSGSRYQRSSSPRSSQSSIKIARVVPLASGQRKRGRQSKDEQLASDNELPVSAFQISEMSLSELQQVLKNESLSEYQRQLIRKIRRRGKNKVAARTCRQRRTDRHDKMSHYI

[2] = test system: Streptococcus sp. 'group A'; test: Streptococcus pyogenes SK(-)GAS viability under kanamycin – luminescence, BacTiterGlo, confirmation, counter-screen for streptokinase expression inhibitor project, dose response (AID 1900); assay type: functional, organism-based
Streptokinase A = target: T3, Streptokinase A (Streptococcus pyogenes serotype M1, UniProt P10520); test: viability-normalized secreted streptokinase activity reduction – plasminogen activation absorbance, OD405, dose response (AID 1914); assay type: functional, Streptococcus pyogenes M1 GAS;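 further: secreted streptokinase activity via plasminogen activation per viability signal from cell pellet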
T3 sequence (P10520 whole entry): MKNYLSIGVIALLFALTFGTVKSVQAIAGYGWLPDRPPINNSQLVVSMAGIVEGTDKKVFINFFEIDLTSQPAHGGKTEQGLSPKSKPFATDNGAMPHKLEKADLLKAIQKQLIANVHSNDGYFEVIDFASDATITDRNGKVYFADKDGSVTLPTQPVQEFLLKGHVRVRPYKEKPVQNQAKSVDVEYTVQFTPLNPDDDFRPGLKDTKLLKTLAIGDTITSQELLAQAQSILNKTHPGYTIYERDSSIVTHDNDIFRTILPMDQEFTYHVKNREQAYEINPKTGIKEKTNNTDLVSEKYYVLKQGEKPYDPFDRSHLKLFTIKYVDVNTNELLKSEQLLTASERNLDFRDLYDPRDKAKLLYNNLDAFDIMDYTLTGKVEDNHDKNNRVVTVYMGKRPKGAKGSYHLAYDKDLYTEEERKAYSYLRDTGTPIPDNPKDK

Streptococcus = test: GAS UMAA2166 growth inhibition – luminescence, BacTiterGlo, counter-screen for streptokinase expression inhibitor project, dose response (AID 1915); assay type: functional, organism-based;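 further: potency for reduction of bacterial viability or growth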
INS1 = test: INS-1E survival protection against cytokine death – cell-based, luminescence, retest, dose response (AID 449756); assay type: functional; conditions: Rattus norvegicus;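 further: cell death triggered by IL-1 beta plus TNF-alpha plus IFN-gamma mixture; protective hits raise ATP signal compared with cytokine alone wells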
[3] = Luminescence Cell-Based Dose Retest to Confirm Inhibitors of Cancer Stem Cells. [Related pubchem assays (depositor defined):AID2717, AID2721]; assay type: functional; conditions: Homo sapiens
Cytochrome P450 1A2 = target: T4, Cytochrome P450 1A2 (Homo sapiens, UniProt P05177);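 further: PubChem cytochrome P450 panel assay, CYP1A2 panel member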
T4 sequence (P05177 whole entry): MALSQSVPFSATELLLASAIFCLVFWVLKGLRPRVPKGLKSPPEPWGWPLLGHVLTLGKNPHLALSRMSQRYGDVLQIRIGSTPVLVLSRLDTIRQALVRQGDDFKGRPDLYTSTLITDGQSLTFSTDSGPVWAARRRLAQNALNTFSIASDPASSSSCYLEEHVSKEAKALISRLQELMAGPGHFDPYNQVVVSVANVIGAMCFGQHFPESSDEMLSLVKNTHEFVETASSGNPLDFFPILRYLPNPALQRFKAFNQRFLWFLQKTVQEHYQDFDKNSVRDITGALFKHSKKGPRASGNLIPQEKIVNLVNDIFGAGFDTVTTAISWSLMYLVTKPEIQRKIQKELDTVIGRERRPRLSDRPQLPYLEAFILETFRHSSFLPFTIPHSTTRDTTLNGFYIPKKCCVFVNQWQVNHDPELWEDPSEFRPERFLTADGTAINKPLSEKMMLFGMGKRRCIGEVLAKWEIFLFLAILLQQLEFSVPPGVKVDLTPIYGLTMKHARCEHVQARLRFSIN

[4] = Luminescence Cell-Based Dose Response HTS to Identify Activators of Luciferase Translation or Activity in H4 […] Cells. [Related pubchem assays: 1829 (Project Summary), 1814 (Primary HTS)]; assay type: functional
H4 = test: Luminescence Cell-Based Dose Response HTS to Identify Activators of 5'UTR Stem-Loop Driven Prion Protein mRNA Translation in H4 Neuroglioblastoma Cells. [Related pubchem assays: 1829 (Project Summary), 1814 (Primary HTS)]; assay type: functional; conditions: Homo sapiens
[5] = NIH-3T3 fibroblast cytotoxicity, dose response, cytotoxicity control, cell-based, fluorescence, Alamar Blue, secondary assay (AID 2327); assay type: functional;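 further: NIH-3T3 mouse fibroblasts cultured with fluconazole at 8 µg/mL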
[6] = fluconazole-exposed Candida albicans growth modulators – fluorescence, retest, confirmation (AID 2467); assay type: functional, cell-based
[7] = target: Luciferin 4-monooxygenase (Photinus pyralis, UniProt P08659); test: inhibition of purified Photinus pyralis luciferase – biochemical, luminescence, dose response (AID 1891)
[8] = Luminescence Cell-Based Dose Confirmation HTS to Identify Inhibitors of Platelet Dense Granule Release. [Related pubchem assays: 1663 (Primary HTS), 1678 (Summary of Project)]; assay type: functional

Chain of Cytochrome P450 2C19 (P33261 whole entry): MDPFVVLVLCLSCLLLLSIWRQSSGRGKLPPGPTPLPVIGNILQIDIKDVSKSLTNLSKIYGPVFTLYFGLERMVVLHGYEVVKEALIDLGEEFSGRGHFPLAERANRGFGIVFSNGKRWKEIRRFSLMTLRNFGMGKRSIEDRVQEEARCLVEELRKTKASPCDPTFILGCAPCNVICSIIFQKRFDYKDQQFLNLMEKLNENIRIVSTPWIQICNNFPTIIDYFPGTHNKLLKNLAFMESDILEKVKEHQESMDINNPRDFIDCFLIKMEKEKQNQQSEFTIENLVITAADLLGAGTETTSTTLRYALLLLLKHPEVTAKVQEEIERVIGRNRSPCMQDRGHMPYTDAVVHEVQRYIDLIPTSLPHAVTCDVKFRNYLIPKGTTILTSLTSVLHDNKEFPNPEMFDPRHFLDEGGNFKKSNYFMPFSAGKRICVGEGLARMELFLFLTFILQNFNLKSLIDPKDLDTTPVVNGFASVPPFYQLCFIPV
Chain of Cytochrome P450 3A4 (P08684 whole entry): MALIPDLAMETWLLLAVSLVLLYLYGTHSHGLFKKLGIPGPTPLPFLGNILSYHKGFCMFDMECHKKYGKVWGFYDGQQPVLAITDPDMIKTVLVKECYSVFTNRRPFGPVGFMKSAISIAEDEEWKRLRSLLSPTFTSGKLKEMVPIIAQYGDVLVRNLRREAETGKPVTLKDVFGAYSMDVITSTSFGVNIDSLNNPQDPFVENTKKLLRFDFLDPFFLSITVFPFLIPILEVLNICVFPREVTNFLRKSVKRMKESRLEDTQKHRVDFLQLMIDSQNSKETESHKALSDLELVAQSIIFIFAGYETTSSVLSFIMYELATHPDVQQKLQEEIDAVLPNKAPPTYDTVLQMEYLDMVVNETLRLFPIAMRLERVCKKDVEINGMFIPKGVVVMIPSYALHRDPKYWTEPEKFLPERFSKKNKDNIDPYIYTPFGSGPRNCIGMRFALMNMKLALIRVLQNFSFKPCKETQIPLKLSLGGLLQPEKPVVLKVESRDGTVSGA
Chain of Cytochrome P450 2C9 (P11712 whole entry): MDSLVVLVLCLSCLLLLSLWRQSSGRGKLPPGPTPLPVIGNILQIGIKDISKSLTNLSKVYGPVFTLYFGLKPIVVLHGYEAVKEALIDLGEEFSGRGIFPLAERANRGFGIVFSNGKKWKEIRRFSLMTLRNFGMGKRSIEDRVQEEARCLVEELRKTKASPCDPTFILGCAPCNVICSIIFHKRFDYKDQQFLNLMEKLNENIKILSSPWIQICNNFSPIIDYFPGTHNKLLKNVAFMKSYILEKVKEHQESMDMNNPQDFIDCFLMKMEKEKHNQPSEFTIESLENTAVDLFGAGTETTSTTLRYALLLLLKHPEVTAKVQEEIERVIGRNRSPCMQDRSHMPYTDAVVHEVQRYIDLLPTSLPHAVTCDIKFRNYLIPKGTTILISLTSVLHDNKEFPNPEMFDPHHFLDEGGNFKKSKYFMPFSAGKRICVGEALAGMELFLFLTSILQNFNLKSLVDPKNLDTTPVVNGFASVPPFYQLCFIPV
Chain of Luciferin 4-monooxygenase (P08659 whole entry): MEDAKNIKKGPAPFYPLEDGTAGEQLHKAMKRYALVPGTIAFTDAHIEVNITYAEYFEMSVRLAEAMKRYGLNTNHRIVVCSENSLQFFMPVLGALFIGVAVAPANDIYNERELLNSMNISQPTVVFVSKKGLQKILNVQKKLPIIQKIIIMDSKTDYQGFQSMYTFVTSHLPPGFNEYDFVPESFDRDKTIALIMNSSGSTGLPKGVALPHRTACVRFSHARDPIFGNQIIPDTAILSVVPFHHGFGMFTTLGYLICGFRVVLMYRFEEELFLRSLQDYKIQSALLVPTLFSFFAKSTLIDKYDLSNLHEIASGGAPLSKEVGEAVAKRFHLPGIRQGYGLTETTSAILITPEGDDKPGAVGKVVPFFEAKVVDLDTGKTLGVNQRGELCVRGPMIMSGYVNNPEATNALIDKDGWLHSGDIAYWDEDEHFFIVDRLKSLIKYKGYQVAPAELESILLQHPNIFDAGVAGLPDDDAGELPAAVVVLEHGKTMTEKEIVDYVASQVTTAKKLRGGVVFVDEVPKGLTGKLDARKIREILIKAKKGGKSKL

O=C(c1cccc(F)c1)N1CCN(C2CCCCC2)CC1
IC50 [1]: 116 µM (active)

O=c1cnc2cncnc2n1Cc1ccccc1
AC50 (Cytochrome P450 2C19): 39.8 µM (inconclusive) | AC50 (Cytochrome P450 3A4): 20 µM (inconclusive) | AC50 (Cytochrome P450 2C9): 31.6 µM (inconclusive)

Cc1ccc(NCCC(=O)c2ccc(Cl)cc2)cc1
AC50 (Cytochrome P450 3A4): 12.6 µM (inconclusive) | AC50 (Cytochrome P450 2C9): 3.98 µM (inconclusive)

CCc1ccc(Nc2oc(C)cc(=O)c2C(C)=O)cc1
IC50 (Protein skinhead-1): > 100 µM (inactive)

Cc1ccccc1Oc1nc(-c2ccccn2)nc2ccccc12
EC50 [2]: 12.4 µM (active) | EC50 (Streptokinase A): > 150 µM (not active) | EC50 (Streptococcus): 18.5 µM (active) | AC50 (INS1): 2.19 µM (active)

COc1ccc(-c2cc(C(=O)N3CC4(C)CC3CC(C)(C)C4)no2)cc1 (stereo unspecified)
AC50 [3]: 0.442 µM (active)

CCOC(=O)Nc1ccc(NCc2ccc(F)cc2)nc1N [FLUPIRTINE]
AC50 (Cytochrome P450 2C19): 25.1 µM (inconclusive) | AC50 (Cytochrome P450 1A2): 39.8 µM (inconclusive) | AC50 (Cytochrome P450 2C9): 25.1 µM (inconclusive)

Cc1ccc(C2(C)NC(=O)N(CC(=O)Nc3cc(C)on3)C2=O)cc1 (stereo unspecified)
AC50 (Cytochrome P450 3A4): 25.1 µM (inconclusive) | AC50 (Cytochrome P450 2C9): 14.1 µM (inconclusive)

COc1ccc(NS(=O)(=O)c2cccc(C(=O)NN=Cc3ccc(O)c(OC)c3)c2)cc1
IC50 [1]: 79.4 µM (active)

CC1=N/C(=C\c2ccc([N+](=O)[O-])cc2)C(=O)N1c1ccc(Br)c(C)c1
AC50 (Cytochrome P450 1A2): 5.62 µM (inconclusive) | AC50 (Cytochrome P450 2C9): 7.94 µM (inconclusive)

COc1ccc(S(=O)(=O)n2ccc(-c3cnc(-c4ccccc4)s3)n2)cc1
EC50 [4]: > 120 µM (not active) | EC50 (H4): 41.2 µM (active)

Cn1c(SCc2ccccc2)nnc1-c1ccc2c(c1)OCO2
EC50 [4]: 95.9 µM (active) | EC50 (H4): 29.8 µM (inconclusive)

CCCS(=O)(=O)N1CCN(C2CCC(C)CC2)CC1 (stereo unspecified)
IC50 [1]: 232 µM (active)

CC(C)CC(=O)NC(N=C(S)Nc1sc2c(c1C#N)CCCC2)C(Cl)(Cl)Cl (stereo unspecified)
EC50 [2]: 3.06 µM (active) | EC50 (Streptokinase A): 3.23 µM (active) | EC50 (Streptococcus): 6.32 µM (active) | AC50 [3]: 0.974 µM (active)

Nc1ccc(/N=N\c2ccc(-c3ccc(O)cc3)cc2)c2ccc(S(=O)(=O)O)cc12
AC50 (Cytochrome P450 2C19): 6.31 µM (inconclusive) | AC50 (Cytochrome P450 2C9): 5.01 µM (inconclusive)

O=c1c(F)cn(C2CCCO2)c(=O)n1Cc1c(F)cccc1Cl (stereo unspecified)
EC50 [5]: > 150 µM (inactive) | EC50 [6]: > 38 µM (not active)

COc1cccc(C(=O)NNC(=O)c2ccccc2Br)c1
EC50 [5]: > 150 µM (inconclusive) | EC50 [6]: > 38 µM (not active)

CCCCNc1cc(=O)oc2ccccc12
AC50 (Cytochrome P450 3A4): 17.8 µM (inconclusive) | AC50 (Cytochrome P450 2C9): 6.31 µM (inconclusive)

COc1cc(/C=N/Nc2ccc(F)cc2F)cc(OC)c1OC
EC50 [5]: 20.8 µM (active) | EC50 [6]: > 38 µM (not active)

Cn1c(=O)c(-c2cc(F)cc(F)c2)nc2cnc(N3CCNCC3)nc21
AC50 (Cytochrome P450 3A4): 31.6 µM (inconclusive) | AC50 (Cytochrome P450 2C9): 25.1 µM (inconclusive)

CCOC(=O)C1CCCN(C2=NC(=O)/C(=C/c3ccc(O)c(OCC)c3)S2)C1 (stereo unspecified)
IC50 [1]: 26.5 µM (active)

Cc1ccccc1/C=C/c1nc(O)c2ccccc2n1
EC50 (H4): 1.13 µM (active)

O=C(CN1C(=O)S/C(=C\c2ccccn2)C1=O)Nc1ccccc1
EC50 [5]: 89.4 µM (active) | EC50 [6]: > 38 µM (not active)

O=c1cc(CN2CCOCC2)c2ccc(O)c(O)c2o1
IC50 [1]: 82.7 µM (active)

Brc1ccc(CN2CCN(Cc3c[nH]c4ccccc34)CC2)cc1
AC50 (INS1): 6.68 µM (active)

COc1ccc(Nc2nnc(-c3ccccc3)c3ccccc23)cc1C(=O)N1CCCCC1
AC50 [3]: 31.2 µM (active)

COc1ccc(NCCC(O)c2ccc(Cl)cc2)cc1 (stereo unspecified)
IC50 [1]: 29.1 µM (active)

COc1cc(/C=N/NC(=O)/C(=C/c2ccccc2)CCO)ccc1O
EC50 [7]: > 112 µM (not active) | EC50 [8]: 11.1 µM (active) | IC50 [1]: 35.7 µM (active)

CCOC(=O)c1ccc(Oc2nc(NC(C)(C)C)nc(N(C)C)n2)cc1
EC50 [5]: > 150 µM (inactive) | EC50 [6]: > 38 µM (not active)

c1nc(NCc2ccc3c(c2)OCO3)c2cc(-c3ccc4c(c3)OCCO4)ccc2n1
AC50 (INS1): 10.4 µM (active)

O=C(c1ccncc1)N1CCC2(CC1)CCN(C(c1ccccc1)c1ccccc1)CC2
AC50 (Cytochrome P450 2C19): 39.8 µM (inconclusive) | AC50 (Cytochrome P450 1A2): 12.6 µM (inconclusive) | AC50 (Cytochrome P450 2C9): 12.6 µM (inconclusive)

Oc1c(C(c2ccccn2)N2CCC(Cc3ccccc3)CC2)cc(Cl)c2cccnc12 (stereo unspecified)
EC50 [5]: 13.9 µM (inconclusive) | EC50 [6]: 1.46 µM (active)

CC(C)CC(NC(=O)C(NC(=O)C(Cc1ccc(OCc2ccccc2)cc1)NC(=O)OC(C)(C)C)C(C)C)C(N)=O (stereo not drawn) (Boc-Tyr(Bn)-Val-Leu-NH2; configuration not given here)
AC50 [3]: 24.4 µM (active)

COc1ccc(OC)c(C(=O)CSc2nccc(-c3ccc(Br)cc3)n2)c1
AC50 [3]: 1.33 µM (active)

O=C(NCc1nc(-c2ccc(C(F)(F)F)cc2)no1)Nc1ccc(OC(F)(F)F)cc1
AC50 [3]: 2.68 µM (active)

O=C(O)c1cc(O)ccc1NC(=O)C(c1ccccc1)c1ccccc1
AC50 [3]: > 195 µM (inactive)

C/C(NCc1ccco1)=C1\C(=O)NC(=O)N(c2ccccc2)C1=O
AC50 (Cytochrome P450 2C9): 39.8 µM (inconclusive)

COc1ccc(OC)c(-c2csc(NC(=O)c3ccc(F)cc3)n2)c1
AC50 [3]: 2.38 µM (active)
